The target of the assay is T1, human cannabinoid CB2 receptor (Homo sapiens, UniProt P34972).
T1 construct: expressed in transfected cells; host or cells: human embryonic kidney (HEK) cells, transient, Semliki Forest virus system
Kind of assay: Affinity for cannabinoid CB2 receptors, [3H]-CP-55,940 radioligand binding on membrane preparations of transfected HEK cells. The note with it: [3H]-CP-55,940 as radioligand, HEK cell membranes. The procedure:
The affinity of the compounds of the invention for cannabinoid CB2 receptors was determined using membrane preparations of human embryonic kidney (HEK) cells in which the human cannabinoid CB2 receptor is transiently transfected using the Semliki Forest virus system in conjunction with [3H]-CP-55,940 as radioligand. After incubation of a cell membrane preparation with the [3H]-ligand, with or without addition of compounds of the invention, separation of bound and free ligand was performed by filtration over glassfiber filters. Radioactivity on the filter was measured by liquid scintillation counting.

T1 sequence (P34972 whole entry): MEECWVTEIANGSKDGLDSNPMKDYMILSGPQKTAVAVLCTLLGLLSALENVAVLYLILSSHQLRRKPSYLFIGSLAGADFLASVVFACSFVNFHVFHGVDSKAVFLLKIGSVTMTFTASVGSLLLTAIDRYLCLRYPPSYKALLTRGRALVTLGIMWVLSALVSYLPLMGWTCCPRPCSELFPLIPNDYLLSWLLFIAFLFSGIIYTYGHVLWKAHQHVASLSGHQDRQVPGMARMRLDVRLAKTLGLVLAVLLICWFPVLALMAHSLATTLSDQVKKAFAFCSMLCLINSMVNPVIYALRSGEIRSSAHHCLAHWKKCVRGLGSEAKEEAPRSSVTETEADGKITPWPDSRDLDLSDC

One may read the Ki as a dissociation constant, usually derived from enzyme kinetics or from competition with a known ligand. A high value points to lower affinity. Turning to “6-Cyclopropylmethoxy-5-pyrrolidin-1-yl-pyrazine-2-carboxylic acid ((S)-1-hydroxymethyl-3-methyl-butyl)-amide [Example 4]”, the inhibitory constant (Ki) is 0.044 µM. For the molecule “2-Ethyl-2-{[5-pyrrolidin-1-yl-6-(2,2,2-trifluoro-ethoxy)-pyrazine-2-carbonyl]-amino}-pentanoic acid methyl ester [Example 14]”, the Ki is 0.063 µM. `CC(C)C[C@@H](CO)NC(=O)c1cnc(OCC2CC2)c(N2CCCCC2)n1` [Example 44, 5-Cyclopropylmethoxy-6-piperidin-1-yl-pyrazine-2-carboxylic acid ((S)-1-hydroxymethyl-3-methyl-butyl)-amide]: the affinity, expressed as Ki, was 0.043 µM.

Source of the values: patent publication US7691863B2, “Pyrazine-2-carboxamide derivatives as CB2 receptor modulators” (Hoffman-La Roche Inc., priority 2006, dated 2010).
